Results reported in patent publication US11345650B1, “Methods and systems for crystallizing and isolating individual cannabinoids” (MYKU Biosciences LLC, priority 2021, dated 2022).

Test: Minimum concentration of CBD required for crystallization from solution
Format: physicochemical
Description: The minimum concentration of CBD required for selective crystallization from a solution containing a plurality of cannabinoids was evaluated.
The CBD-rich solution shown in Table A7 was diluted in MCT coconut oil to the aforementioned CBD concentrations. The samples were heated to 60° C. for about five minutes. Then, each solution was subjected to the following nucleation factors: agitation (intense stirring), cold shock (cooling solution to −20° C. and mixing), introduction of a CBD seed crystal, and exposure to a vacuum at a pressure of −25 inHg). Photographs of the crystallized cannabinoids were taken after 24 hours.
The experiment was also repeated using mixtures of cannabinoid CBD and THCa isolates in oleic acid.

C=C(C)[C@@H]1CCC(C)=C[C@H]1c1c(O)cc(CCCCC)cc1O [CBD, Cannabidiol]
lowest tested concentration of CBD that exhibited crystallization (CBD-rich solution with a plurality of cannabinoids diluted in MCT coconut oil, heated to 60° C., agitation, cold shock −20° C., seed crystal, vacuum −25 inHg, after 24 hours): 19.6%
lowest tested concentration of CBD that crystallized (mixtures of CBD and THCa isolates in oleic acid (FIG. 16: 24% CBD, 1% THCA, 75% oleic acid)): 24%
